{"source": "paper PMC7904743", "about": "“WIDOCK: a reactive docking protocol for virtual screening of covalent inhibitors” (Journal of Computer-Aided Molecular Design, 2021)", "origin": "cited, not measured here", "key": {"[1]": {"tested_on": "OTUB2", "settings": "OTUB2 protein labeling; experimental actives if % labeling higher than 50%; cited from earlier work"}, "[2]": {"tested_on": "NUDT7", "settings": "protein labeling at 200 μM; experimental actives if % labeling higher than 50%; cited from earlier work"}, "[3]": {"settings": "thiol reactivity, cited from earlier work"}, "[4]": {"settings": "natural log of average kinetic rate constant"}, "[5]": {"settings": "natural log of average rate constant"}}, "note": "Read-outs that look alike come from different tables or passages of the source."}
{"smiles": "CC(C)N(C(=O)CCl)C1CCCC1", "note": "[PCM-0102948, CC(C)N(C(=O)CCl)C1CCCC1]", "values": [{"measurement": "OTUB2 % labeling", "setting": "[1]", "value": 0, "unit": "%"}, {"measurement": "NUDT7 % labeling", "setting": "[2]", "value": 13, "unit": "%"}, {"measurement": "ln(avg k)", "setting": "[3]; [4]", "value": -16.391}, {"measurement": "ln(avg k)", "setting": "[3]; [5]", "value": -16.391}]}
{"smiles": "Cc1nn(C)c(C)c1NC(=O)CCl", "note": "[PCM-0102949, Cc1nn(C)c(C)c1NC(=O)CCl]", "values": [{"measurement": "OTUB2 % labeling", "setting": "[1]", "value": 0, "unit": "%"}, {"measurement": "NUDT7 % labeling", "setting": "[2]", "value": 0, "unit": "%"}, {"measurement": "ln(avg k)", "setting": "[3]; [4]", "value": -16.344}, {"measurement": "ln(avg k)", "setting": "[3]; [5]", "value": -16.344}]}
{"smiles": "O=C(CCl)NCc1ccccn1", "note": "[PCM-0102950, O=C(CCl)NCc1ccccn1]", "values": [{"measurement": "OTUB2 % labeling", "setting": "[1]", "value": 0, "unit": "%"}, {"measurement": "NUDT7 % labeling", "setting": "[2]", "value": 0, "unit": "%"}, {"measurement": "ln(avg k)", "setting": "[3]; [4]", "value": -17.514}, {"measurement": "ln(avg k)", "setting": "[3]; [5]", "value": -17.514}]}
{"smiles": "O=C(CCl)NC1(c2ccc3c(c2)OCCO3)CCCC1", "note": "[PCM-0102951, O=C(CCl)NC1(c2ccc3c(c2)OCCO3)CCCC1]", "values": [{"measurement": "OTUB2 % labeling", "setting": "[1]", "value": 0, "unit": "%"}, {"measurement": "NUDT7 % labeling", "setting": "[2]", "value": 100, "unit": "%"}, {"measurement": "ln(avg k)", "setting": "[3]; [4]", "value": -16.488}, {"measurement": "ln(avg k)", "setting": "[3]; [5]", "value": -16.488}]}
{"smiles": "O=C(CCl)NNC(=O)c1ccc(Cl)cc1", "note": "[PCM-0102953, O=C(CCl)NNC(=O)c1ccc(Cl)cc1]", "values": [{"measurement": "OTUB2 % labeling", "setting": "[1]", "value": 18, "unit": "%"}, {"measurement": "NUDT7 % labeling", "setting": "[2]", "value": 0, "unit": "%"}, {"measurement": "ln(avg k)", "setting": "[3]; [4]", "value": -17.321}, {"measurement": "ln(avg k)", "setting": "[3]; [5]", "value": -17.321}]}
{"smiles": "O=C(CCl)NNC(=O)c1ccccc1Cl", "note": "[PCM-0102954, O=C(CCl)NNC(=O)c1ccccc1Cl]", "values": [{"measurement": "OTUB2 % labeling", "setting": "[1]", "value": 80, "unit": "%"}, {"measurement": "NUDT7 % labeling", "setting": "[2]", "value": 0, "unit": "%"}, {"measurement": "ln(avg k)", "setting": "[3]; [4]", "value": -17.060}, {"measurement": "ln(avg k)", "setting": "[3]; [5]", "value": -17.060}]}
{"smiles": "Cc1ccc(NC(=O)CCl)cc1Br", "note": "[PCM-0102955, Cc1ccc(NC(=O)CCl)cc1Br]", "values": [{"measurement": "OTUB2 % labeling", "setting": "[1]", "value": 14, "unit": "%"}, {"measurement": "NUDT7 % labeling", "setting": "[2]", "value": 27, "unit": "%"}, {"measurement": "ln(avg k)", "setting": "[3]; [4]", "value": -16.336}, {"measurement": "ln(avg k)", "setting": "[3]; [5]", "value": -16.336}]}
{"smiles": "O=C(Nc1ccccc1)NN(C(=O)CCl)c1ccccc1", "note": "[PCM-0102957, O=C(Nc1ccccc1)NN(C(=O)CCl)c1ccccc1]", "values": [{"measurement": "OTUB2 % labeling", "setting": "[1]", "value": 0, "unit": "%"}, {"measurement": "NUDT7 % labeling", "setting": "[2]", "value": 100, "unit": "%"}, {"measurement": "ln(avg k)", "setting": "[3]; [4]", "value": -15.066}, {"measurement": "ln(avg k)", "setting": "[3]; [5]", "value": -15.066}]}
{"smiles": "CN(Cc1ccc2c(c1)OCCO2)C(=O)CCl", "note": "[PCM-0102958, CN(Cc1ccc2c(c1)OCCO2)C(=O)CCl]", "values": [{"measurement": "OTUB2 % labeling", "setting": "[1]", "value": 9, "unit": "%"}, {"measurement": "NUDT7 % labeling", "setting": "[2]", "value": 27, "unit": "%"}, {"measurement": "ln(avg k)", "setting": "[3]; [4]", "value": -16.177}, {"measurement": "ln(avg k)", "setting": "[3]; [5]", "value": -16.177}]}
{"smiles": "Cc1ccc(CNC(=O)CCl)cc1F", "note": "[PCM-0102959, Cc1ccc(CNC(=O)CCl)cc1F]", "values": [{"measurement": "OTUB2 % labeling", "setting": "[1]", "value": 50, "unit": "%"}, {"measurement": "NUDT7 % labeling", "setting": "[2]", "value": 0, "unit": "%"}, {"measurement": "ln(avg k)", "setting": "[3]; [4]", "value": -16.344}, {"measurement": "ln(avg k)", "setting": "[3]; [5]", "value": -16.344}]}
{"smiles": "Cc1ccc(C(=O)N2CCN(C(=O)CCl)CC2)cc1", "note": "[PCM-0102962, Cc1ccc(C(=O)N2CCN(C(=O)CCl)CC2)cc1]", "values": [{"measurement": "OTUB2 % labeling", "setting": "[1]", "value": 0, "unit": "%"}, {"measurement": "NUDT7 % labeling", "setting": "[2]", "value": 0, "unit": "%"}, {"measurement": "ln(avg k)", "setting": "[3]; [4]", "value": -15.309}, {"measurement": "ln(avg k)", "setting": "[3]; [5]", "value": -15.309}]}
{"smiles": "CC(=O)c1cccc(NC(=O)CCl)c1", "note": "[PCM-0102965, CC(=O)c1cccc(NC(=O)CCl)c1]", "values": [{"measurement": "OTUB2 % labeling", "setting": "[1]", "value": 36, "unit": "%"}, {"measurement": "NUDT7 % labeling", "setting": "[2]", "value": 0, "unit": "%"}, {"measurement": "ln(avg k)", "setting": "[3]; [4]", "value": -15.751}, {"measurement": "ln(avg k)", "setting": "[3]; [5]", "value": -15.751}]}
{"smiles": "Cc1sc(NC(=O)CCl)c(C)c1C", "note": "[PCM-0102968, Cc1sc(NC(=O)CCl)c(C)c1C]", "values": [{"measurement": "OTUB2 % labeling", "setting": "[1]", "value": 0, "unit": "%"}, {"measurement": "NUDT7 % labeling", "setting": "[2]", "value": 0, "unit": "%"}, {"measurement": "ln(avg k)", "setting": "[3]; [4]", "value": -16.020}, {"measurement": "ln(avg k)", "setting": "[3]; [5]", "value": -16.020}]}
{"smiles": "CS(C)(=O)=NC(=O)CCl", "note": "[PCM-0102969, CS(C)(=O)=NC(=O)CCl]", "values": [{"measurement": "OTUB2 % labeling", "setting": "[1]", "value": 0, "unit": "%"}, {"measurement": "NUDT7 % labeling", "setting": "[2]", "value": 0, "unit": "%"}, {"measurement": "ln(avg k)", "setting": "[3]; [4]", "value": -15.757}, {"measurement": "ln(avg k)", "setting": "[3]; [5]", "value": -15.757}]}
{"smiles": "O=C(CCl)N1CCN(C(=O)C2CC2)CC1", "note": "[PCM-0102970, O=C(CCl)N1CCN(C(=O)C2CC2)CC1]", "values": [{"measurement": "OTUB2 % labeling", "setting": "[1]", "value": 0, "unit": "%"}, {"measurement": "NUDT7 % labeling", "setting": "[2]", "value": 7, "unit": "%"}, {"measurement": "ln(avg k)", "setting": "[3]; [4]", "value": -15.304}, {"measurement": "ln(avg k)", "setting": "[3]; [5]", "value": -15.304}]}
{"smiles": "CC(c1cc2ccccc2o1)N(C)C(=O)CCl", "note": "(stereo not drawn) [PCM-0102971, CC(c1cc2ccccc2o1)N(C)C(=O)CCl]", "values": [{"measurement": "OTUB2 % labeling", "setting": "[1]", "value": 0, "unit": "%"}, {"measurement": "NUDT7 % labeling", "setting": "[2]", "value": 66, "unit": "%"}, {"measurement": "ln(avg k)", "setting": "[3]; [4]", "value": -16.092}, {"measurement": "ln(avg k)", "setting": "[3]; [5]", "value": -16.092}]}
{"smiles": "O=C(CCl)N1CCC(C(=O)N2CCCCC2)CC1", "note": "[PCM-0102972, O=C(CCl)N1CCC(C(=O)N2CCCCC2)CC1]", "values": [{"measurement": "OTUB2 % labeling", "setting": "[1]", "value": 8, "unit": "%"}, {"measurement": "NUDT7 % labeling", "setting": "[2]", "value": 0, "unit": "%"}, {"measurement": "ln(avg k)", "setting": "[3]; [4]", "value": -15.512}, {"measurement": "ln(avg k)", "setting": "[3]; [5]", "value": -15.512}]}
{"smiles": "Cc1ccc(CNC(=O)CCl)s1", "note": "[PCM-0102973, Cc1ccc(CNC(=O)CCl)s1]", "values": [{"measurement": "OTUB2 % labeling", "setting": "[1]", "value": 75, "unit": "%"}, {"measurement": "NUDT7 % labeling", "setting": "[2]", "value": 11, "unit": "%"}, {"measurement": "ln(avg k)", "setting": "[3]; [4]", "value": -16.818}, {"measurement": "ln(avg k)", "setting": "[3]; [5]", "value": -16.818}]}
{"smiles": "CC(C)N(C)C(=O)C1CCN(C(=O)CCl)CC1", "note": "[PCM-0102974, CC(C)N(C)C(=O)C1CCN(C(=O)CCl)CC1]", "values": [{"measurement": "OTUB2 % labeling", "setting": "[1]", "value": 0, "unit": "%"}, {"measurement": "NUDT7 % labeling", "setting": "[2]", "value": 0, "unit": "%"}, {"measurement": "ln(avg k)", "setting": "[3]; [4]", "value": -15.247}, {"measurement": "ln(avg k)", "setting": "[3]; [5]", "value": -15.247}]}
{"smiles": "COC(=O)c1cccc(NC(=O)CCl)n1", "note": "[PCM-0102977, COC(=O)c1cccc(NC(=O)CCl)n1]", "values": [{"measurement": "OTUB2 % labeling", "setting": "[1]", "value": 0, "unit": "%"}, {"measurement": "NUDT7 % labeling", "setting": "[2]", "value": 0, "unit": "%"}, {"measurement": "ln(avg k)", "setting": "[3]; [4]", "value": -16.790}, {"measurement": "ln(avg k)", "setting": "[3]; [5]", "value": -16.790}]}
{"smiles": "COC(=O)C1CCN(C(=O)CCl)CC1", "note": "[PCM-0102978, COC(=O)C1CCN(C(=O)CCl)CC1]", "values": [{"measurement": "OTUB2 % labeling", "setting": "[1]", "value": 0, "unit": "%"}, {"measurement": "NUDT7 % labeling", "setting": "[2]", "value": 0, "unit": "%"}, {"measurement": "ln(avg k)", "setting": "[3]; [4]", "value": -16.559}, {"measurement": "ln(avg k)", "setting": "[3]; [5]", "value": -16.559}]}
